In patent publication US20250319055A1, “COMPOSITIONS FOR TREATING GENITAL HERPES AND METHODS OF THEIR USE” (priority 2024, published 2025):
≈ marks a conversion by molar mass, not a printed value. Where two headings read alike, the source gives them in different places.

How the values were obtained:
[1] = tested on: HSV-2 MS in HEK293-RyR1 cells; assay: HSV-2 cytopathic effect (CPE) inhibition assay, crystal violet staining; assay type: cell-based, Herpes Simplex Virus 2, strain MS; conditions: for IC50: Human alphaherpesvirus 2, 72 h, read-out: IC50, CPE inhibition
Experimental: HSV-2 infection was established in HEK293-RyR1 cells by testing three different multiplicities of infection (MOI) as part of the development of the CPE inhibition assay. An inhibitor of HSV-2 was incubated with cells and subsequently infected with HSV-2 at three different MOIs. Cells-only and virus-only controls were included. Cells were observed daily to monitor CPE progression, and the incubation was allowed to continue until sufficient CPE of 60-80% is observed in the virus-only controls. CPE was quantified via crystal violet staining and results given as % inhibition and IC50 values, 50% of the maximum inhibitory dosage of the test article.
The virus was Herpes Simplex Virus 2, strain MS, lot 7172020, at MOI of 0.01 (ATCC, Catalog #VR-540). HEK293-RyR1 cell line was obtained from Kerafast (Cat. #EUR301). Growth medium was DMEM (High Glucose) supplemented with 10% FBS, 2 mM L-Glutamine, 1% Pen/Strep, 100 µg/ml Hygromycin. Incubation medium was DMEM (High Glucose) supplemented with 2% FBS, 2 mM L-Glutamine, 1% Pen/Strep. Infection medium was DMEM (High Glucose) supplemented with 2 mM L-Glutamine, 1% Pen/Strep. Acyclovir (as a control HSV-2 MS inhibitor) was stored at cell culture grade water (Ultrapure DNAse/RNase free distilled water, Thermo Scientific Cat. 10977015) and tested at concentrations of 10, 3.2, 1.0, 0.32, 0.10, 0.032, 0.010, 0.0032 50, 25, 12.5, 6.25, 3.125, 1.5625, 0.78125, 0.3906 100, 50, 25, 12.5, 6.25, 3.125, 1.5625, 0.78125 mg/ml. Carbachol (a Calcium agonist), obtained from Fisher Scientific (ASL0667403) was stored in cell culture-grade water and tested at concentrations of 333, 166.65, 83.325, 41.6625 mg/ml. […]
HSV-2 MS was prepared at the specific MOI in infection medium and added to the acyclovir/TA-containing wells in a dilution block. […] Plates were monitored daily to observe CPE levels. […]
After one hour, plates were washed with tap water and blotted on absorbent paper. Plates were allowed to air dry, and the absorbance of each well was read at 570 nm with a plate reader.
Absorbance values were exported into Excel. […]

[2] = tested on: HSV-2 mediated calcium flux in HEK293-RyR1 cells; assay: Calcium flux assay with Fluo-4 Direct Calcium Assay Kit; assay type: cell-based; conditions: for RFU drop in calcium flux: FIG. 6A-6B legend; for maximum average ΔRFU: treated cells minus cells only, HSV-2 MOI 0.01
Experimental: The Fluo-4 Direct™ Calcium Assay Kit was be used to assess calcium response in RyR1-expressing cells treated with a calcium agonist (Carbachol) or infected with HSV-2 MS at an MOI of 0.01. For the virus-infected cells, procedures as described above were followed but with a 96-well black plate.
Cells were seeded in 100 μL of incubation medium in black 96-well plates coated with poly-D-lysine at 5.0E+04 cells per well and incubated at 37° C. with 5% CO2 overnight (16-20 hours). […]
A 2× Fluo-4 Direct™ calcium reagent loading solution with 5 mM probenecid was prepared by adding 10 mL of Fluo-4 Direct™ calcium assay buffer and 200 μL of the 250 mM stock solution of probenecid to one bottle of 2× Fluo-4 Direct™ calcium reagent (labeled Component A). The solution was vortexed and allowed to sit for five minutes for complete dissolution. […]
The fluorescence of each well was measured directly after the addition of carbachol with the Biotek Cytation 5 plate reader using the fluorescence reader settings for excitation at 494/10 nm and emission at 520/10 nm. The fluorescence measurements in relative fluorescence units (RFU) were recorded and exported to Excel.
ΔRFU is given in relative fluorescent units (RFU) as the maximum response (TA or virus treated cells) minus the minimum response (cells only).
On day 3, a 250 mM stock solution of probenecid was prepared by adding 1 mL of Fluo-4 Direct™ calcium assay buffer (labeled Component C) to each 77 mg vial of water-soluble probenecid. The vial was vortexed until dissolved.
Plated cells were removed from the incubator. TA/virus dilutions were removed and 100 μL of incubation medium was added to the plate. Then, 100 μL of 2× Fluo-4 Direct™ calcium reagent loading solution was added. Plates were incubated for 30 minutes at 37° C. with 5% CO2 followed by 30 minutes at room temperature. Carbachol dilutions (100 μL) were added to the plate that contains only cells as a positive control.

[3] = base form versus salt form (Miller et al. 1993); cited from earlier work
HSV-2 genital herpes = assay: Treatment of HSV-2 genital herpes in human subjects; assay type: in vivo
Text: An otherwise healthy person presented pain with urination and a solitary sore on the vulva. It was initially unclear by visible inspection if the solitary sore was herpes or a shave injury. […] The patient reported Pain 7/10, and worse with urination. […] The patient was given the formulation to use at home (two applications per day). The patient was also offered a prescription for 1 gram of Valtrex to be taken twice a day.
As a comparison, before the date of the patient's treatment, typical otherwise healthy female patients of this same age presenting similar herpes sores are given a prescription for Valtrex and take up to two weeks to resolve their herpes ulcers.
A second human subject with a long history of HSV-2 who has previously taken oral Valtrex™ (Valacyclovir) to resolve past HSV-2 ulcerations was administered a representative pharmaceutical composition of this disclosure as described in Example 1. The subject has previously resolved HSV-2 ulcerations in 5-7 days after outbreak when administered Valtrex. The subject was administered the representative tetracaine composition twice a day for two days at which point the subject's lesions were completely re-epithelialized and the pain was reduced to 0/10. Before treatment, the subject reported pain at 5/10 at max. […]

[4] = at the highest concentration tested

Row | Compound | IC50 ([1]; HSV-2 MOI 0.01, 5.0×10^4 HEK293-RyR1 cells per well, day 3) [mg/mL] | RFU drop in calcium flux [2] | maximum average ΔRFU [2, 4] [RFU] | IC50 [1] [mg/mL] | cell morphology of treated cells ([1]; compared to cells only, virus-only and Acyclovir-treated cells, day 3 (FIG. 5D)) | fold higher average ΔRFU than Acyclovir [2, 4] [fold] | flux through the dermis [3] | time to resolve HSV-2 ulcerations after outbreak (HSV-2 genital herpes; person, past outbreaks, oral) [days] | time to resolve herpes ulcers (HSV-2 genital herpes; typical otherwise healthy female patients of same age with similar herpes sores, prescription)
1 | Nc1nc2c(ncn2COCCO)c(=O)[nH]1 [Acyclovir] | 0.0457 (≈ 0.203 mM) | about 2000 RFU | −1801.6 |  |  |  |  |  | 
2 | CCCCNc1ccc(C(=O)OCCN(C)C)cc1 [Tetracaine, 2-(dimethylamino)ethyl 4-(butylamino)benzoate] |  | 4000 RFU | −6527.9 | 94.6 (≈ 358 mM) | Abnormal cell morphology | 3.6 | fluxes more readily than the salt form |  | 
3 | CC(C)[C@H](N)C(=O)OCCOCn1cnc2c(=O)[nH]c(N)nc21 [Valtrex] |  |  |  |  |  |  |  | 5 to 7 | up to two
